Usually EC50 stands for the concentration that produces a half-maximal response.

The first experiment deals with T1, FSHR (Homo sapiens, UniProt P23945).
T1 construct: expressed in transfected cells; host or cells: CHO (Cho-FSHR-LUC-1-1-43)
T1 sequence (P23945 18-695): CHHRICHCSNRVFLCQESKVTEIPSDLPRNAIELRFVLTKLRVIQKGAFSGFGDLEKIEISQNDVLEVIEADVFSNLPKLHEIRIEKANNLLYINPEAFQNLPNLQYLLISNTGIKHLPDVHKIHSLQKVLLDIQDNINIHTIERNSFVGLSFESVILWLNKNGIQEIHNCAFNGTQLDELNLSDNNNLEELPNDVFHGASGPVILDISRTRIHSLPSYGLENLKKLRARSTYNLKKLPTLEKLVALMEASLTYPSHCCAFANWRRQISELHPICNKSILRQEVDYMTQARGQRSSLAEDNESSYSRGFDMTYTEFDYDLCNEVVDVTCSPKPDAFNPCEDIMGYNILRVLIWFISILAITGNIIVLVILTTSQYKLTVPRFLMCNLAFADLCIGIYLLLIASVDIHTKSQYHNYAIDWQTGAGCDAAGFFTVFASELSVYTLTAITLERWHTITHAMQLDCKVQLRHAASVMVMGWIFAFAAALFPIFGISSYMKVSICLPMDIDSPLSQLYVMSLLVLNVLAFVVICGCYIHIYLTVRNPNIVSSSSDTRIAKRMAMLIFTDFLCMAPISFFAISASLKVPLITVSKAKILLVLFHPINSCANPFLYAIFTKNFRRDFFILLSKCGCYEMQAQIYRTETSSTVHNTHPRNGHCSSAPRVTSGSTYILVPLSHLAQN
T1 sequence (P01215 25-116 partner): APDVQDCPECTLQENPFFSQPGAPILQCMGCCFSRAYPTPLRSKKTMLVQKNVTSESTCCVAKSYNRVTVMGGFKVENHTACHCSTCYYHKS
T1 sequence (P01225 19-129 partner): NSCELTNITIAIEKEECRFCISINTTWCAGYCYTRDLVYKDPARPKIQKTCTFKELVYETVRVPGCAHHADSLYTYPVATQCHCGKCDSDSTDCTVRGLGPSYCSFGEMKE
Nature of the experiment: EC50 of cyclic AMP production in CHO FSHR cells + EC20 FSH (Assay A). Format: cell-based. The following applies: 1 h; 5 μM; effect relative to maximum response of the FSH standard; Table 1. Here is the method: Example 10: EC50 of Cyclic AMP Production in CHO FSHR Cells+EC20 FSH (Assay A)
2500 Cho-FSHR-LUC-1-1-43 cells were plated per well in 5 μl of phenol red free DMEM/F12+1% FBS. Cells were plated in 384 well, solid white low volume plates (Greiner 784075) by Multidrop. Cells were assayed by adding 100 μl of 2×EC20 FSH/IBMX in DMEM/F12+0.1% BSA) by Multidrop to 2 μl of test compound stamped in 384 well plates (compounds are diluted 1:50). The final FSH concentration was […], and the final IBMX concentration was 200 μM. The compound plate map was as follows: Column 1: 2 μl of DMSO; Column 2: 2 μl of DMSO; Columns 3-12 and 13-24: 2 μl of test compound, diluted 1:4 in 100% DMSO, or 2 μl of FSH, diluted 1:4 in DMEM/F12+0.1% BSA. The starting concentration for FSH was 50 nM (final concentration was 0.5 nM). […] 5 μl of compound+EC20 FSH mixture were transferred to cell plates (1:2 dilution into 5 μl of cell media) The plates were incubated at 37° C. for 1 h. 10 μl of mixed HTRF (CisBio #62AM4PEC) reagents were added per well and incubated at room temperature for 1 h. The plates were read on Envision using the cAMP HTRF—low volume 384 well protocol. The readout was the calculated fluorescence ratio (665 nm/620 nm). Values given in percent (%) indicate the percental effect (response) at a certain concentration of agonist relative to the maximum response of the FSH standard.
Consider `Cc1ccccc1N1CCN(c2ccc(C(=O)NCCCN3CCCC3=O)cc2NC(=O)c2cccnc2)CC1` [Compound 37], for which the activation at 5 µM was 37%. `Cc1ccccc1CN1CCN(c2ccc(C(=O)NCCCN3CCCC3=O)cc2NC(=O)c2coc(C3CC3)n2)C[C@@H]1C` [Compound 256]: the activation at 5 µM came to 26%.

In the case of `CCOC(=O)N1CCN(c2ccc(C(=O)NCCCN3CCCC3=O)cc2NC(=O)c2ccco2)CC1` [Compound 62, 4-{2-[(Furan-2-carbonyl)-amino]-4-[3-(2-oxo-pyrrolidin-1-yl)-propylcarbamoyl]-phenyl}-piperazine-1-carboxylic acid ethyl ester], the activation at 5 µM is 42%. As for `Cc1ccccc1N1CCN(c2ccc(C(=O)NCCCN3CCCC3=O)cc2NC(=O)c2cccc3cccnc23)CC1` [Compound 44], the activation at 5 µM was found to be 44%. Consider `Cc1ccccc1N1CCN(c2ccc(C(=O)NCCCN3CCCC3=O)cc2NC(=O)c2cnoc2C(C)C)CC1` [Compound 145], for which the activation at 5 µM worked out at 16%. `Cc1ccccc1N1CCN(c2ccc(C(=O)NCCCN3CCCC3=O)cc2NC(=O)c2ccc3ccccc3c2)CC1` [Compound 43]: the activation at 5 µM is 44%. Same read-out and setting: then `Cc1ccccc1N1CCN(c2ccc(C(=O)NCCCN3CCCC3=O)cc2NC(=O)c2c(C)noc2C)CC1` [Compound 106], with 33%; and `Cc1ccccc1N1CCN(c2ccc(C(=O)NCCCN3CCCC3=O)cc2NC(=O)c2cccc(C(F)(F)F)c2)CC1` [Compound 39], with 15%; and `Cc1ccccc1N1CCN(c2ccc(C(=O)NCCCN3CCCC3=O)cc2NC(=O)c2cncs2)CC1` [Compound 99], with 35%. Consider `Cc1ccccc1N1CCN(c2ccc(C(=O)NCCCN3CCCC3=O)cc2NS(=O)(=O)c2ccco2)CC1` [Compound 46], for which the activation at 5 µM amounted to 10%.

The experiment is the same for the next values; noted with them: 1 h; 5 μM; effect relative to maximum response of the FSH standard; Table 2.
Consider `CCOC(=O)c1c[nH]nc1NC(=O)c1ccc(N2CCN(c3ccccc3C)CC2)c(NC(=O)c2coc(C3CC3)n2)c1` [Compound 314], for which the activation at 5 µM came out at 38%. Consider `O=C(NCCCN1CCCC1=O)c1ccc(N2CCN(c3ncncn3)CC2)c(NC(=O)c2coc(C3CC3)n2)c1` [Compound 554], for which the activation at 5 µM was 40%.

The same experiment, now with this note: CHO FSHR cells + EC20 FSH; Table 1; read-out: Assay A EC50 of cyclic AMP production.
Take `Cc1ccccc1N1CCN(c2ccc(C(=O)NCCCN3CCCC3=O)cc2NC(=O)c2ccc(Cl)cn2)CC1` [Compound 129]: the concentration for a half-maximal effect (EC50) was 100 to 1000 nM. `Cc1ccccc1N1CCN(c2ccc(C(=O)NCCCN3CCCC3=O)cc2NC(=O)C2CCCCC2)CC1` [Compound 82]: the EC50 fell in the range of 1000 to 10000 nM. Turning to `Cc1csc(-c2cccc(CNC(=O)c3ccc(N4CCN(c5ccccc5C)CC4)c(NC(=O)c4ccco4)c3)c2)n1` [Compound 262], the EC50 fell in the range of 100 to 1000 nM. The same measure, in the same setting: then `Cc1ccccc1N1CCN(c2ccc(C(=O)NCc3cccc(-c4ccnn4C)c3)cc2NC(=O)c2ccco2)CC1` [Compound 237], with 100 to 1000 nM; and `Cc1nc(C(=O)Nc2cc(C(=O)NCCCN3CCCC3=O)ccc2N2CCN(c3ccccc3C)CC2)c(C)o1` [Compound 102], with 1000 to 10000 nM; and `Cc1ccccc1N1CCN(c2ccc(C(=O)NCCCN3CCCC3=O)cc2NC(=O)c2coc(C(C)C)n2)CC1` [Compound 208], with 1000 to 10000 nM. As to `Cc1ccc(C(=O)Nc2cc(C(=O)N[C@@H]3CCN(C(=O)OC(C)(C)C)C3)ccc2N2CCN(c3ccccc3C)CC2)o1` [Compound 142, (R)-3-[3-[(5-Methyl-furan-2-carbonyl)-amino]-4-(4-o-tolyl-piperazin-1-yl)-benzoylamino]-pyrrolidine-1-carboxylic acid tert-butyl ester], the concentration giving a half-maximal response (EC50) fell in the range of 1000 to 10000 nM. With `Cc1ccccc1N1CCN(c2ccc(C(=O)NCCC3C[C@H]4CC[C@@H]3C4)cc2NC(=O)c2ccco2)CC1` (some centres unmarked) [Compound 157], the 50% effective concentration (EC50) is 100 to 1000 nM. For `Cc1ccccc1N1CCN(c2ccc(C(=O)NCCCN3CCCC3)cc2NC(=O)c2ccco2)CC1` [Compound 117], the EC50 lay within 1000 to 10000 nM. As to `Cc1ccccc1N1CCN(c2ccc(C(=O)NCCCn3cccn3)cc2NC(=O)c2ccco2)CC1` [Compound 90], the EC50 fell in the range of 100 to 1000 nM. As to `Cc1ccccc1N1CCN(c2ccc(C(=O)N[C@H]3O[C@@H](CO)[C@@H]4OC(C)(C)O[C@@H]43)cc2NC(=O)c2ccco2)CC1` [Compound 191], the 50% effective concentration (EC50) lay in the range of 100 to 1000 nM. Still for that read-out and setting: then `Cc1ccccc1N1CCN(c2ccc(C(=O)NCc3cccc4ccccc34)cc2NC(=O)c2ccco2)CC1` [Compound 96, Furan-2-carboxylic acid [5-[(naphthalen-1-ylmethyl)-carbamoyl]-2-(4-o-tolyl-piperazin-1-yl)-phenyl]-amide], with greater than 10000 nM; and `Cc1ccccc1N1CCN(c2ccc(C(=O)NCCCN3CCCC3=O)cc2NC(=O)c2ccc(Cl)cc2)CC1` [Compound 29], with 100 to 1000 nM.

Staying with this experiment, now noted: CHO FSHR cells + EC20 FSH; Table 2; read-out: Assay A EC50 of cyclic AMP production.
Regarding `Cc1ccc(C(=O)Nc2cc(C(=O)NCc3cccc(CN4CCCC4)c3)ccc2N2CCN(c3ccccc3C)CC2)o1` [Compound 546], the EC50 fell in the range of 1000 to 10000 nM.

In the case of `Cc1ccccc1N1CCN(c2ccc(C(=O)NCCCN3CCC(O)C3)cc2NC(=O)c2coc(C3CC3)n2)CC1` (centres unmarked) [Compound 461], the 50% effective concentration (EC50) lay in the range of 100 to 1000 nM. Regarding `Cc1ccccc1N1CCN(c2ccc(C(=O)NCCCc3ccccc3O)cc2NC(=O)c2ccco2)CC1` [Compound 372], the EC50 was in the range of 100 to 1000 nM. `Cc1ccccc1N1CCN(c2ccc(C(=O)NCCCNC(=O)C(C)C)cc2NC(=O)c2coc(C3CC3)n2)CC1` [Compound 446]: the EC50 was 100 to 1000 nM.

As for `Cc1ccccc1N1CCN(c2ccc(C(=O)NCCCN3C(=O)OC[C@H]3CO)cc2NC(=O)c2coc(C3CC3)n2)CC1` [Compound 357], the 50% effective concentration (EC50) lay in the range of 100 to 1000 nM. Consider `Cc1ccc(C(=O)Nc2cc(C(=O)NCc3cccc(CN(C)C)c3)ccc2N2CCN(c3ccccc3C)CC2)o1` [Compound 544], for which the concentration for a half-maximal effect (EC50) lay within 1000 to 10000 nM. As to `Cc1ccccc1N1CCN(c2ccc(C(=O)N3CCC4(COC4)C3)cc2NC(=O)c2coc(C3CC3)n2)CC1` [Compound 594], the concentration for a half-maximal effect (EC50) was in the range of 1000 to 10000 nM. Consider `Cc1ccc(C(=O)Nc2cc(C(=O)NCCc3cn(C)cn3)ccc2N2CCN(c3ncccc3C)CC2)o1` [Compound 464], for which the EC50 was 1000 to 10000 nM. With `Cc1ccc2[nH]cc(CCNC(=O)c3ccc(N4CCN(c5ccccc5C)CC4)c(NC(=O)c4coc(C5CC5)n4)c3)c2c1` [Compound 569], the half-maximal effective concentration (EC50) fell in the range of 1000 to 10000 nM. Consider `Cc1ccccc1N1CCN(c2ccc(C(=O)NCCCc3nc(C)c(C)s3)cc2NC(=O)c2coc(C3CC3)n2)CC1` [Compound 390], for which the EC50 was in the range of 100 to 1000 nM. In the case of `COc1cccc(CNC(=O)c2ccc(N3CCN(c4ccccc4C)CC3)c(NC(=O)c3coc(C4CC4)n3)c2)c1` [Compound 276], the concentration for a half-maximal effect (EC50) fell in the range of 100 to 1000 nM. On to `Cc1ccccc1N1CCN(c2ccc(C(=O)NCc3cccc(-c4nccs4)c3)cc2NC(=O)c2coc(C3CC3)n2)CC1` [Compound 382], for which the concentration for a half-maximal effect (EC50) lay within 100 to 1000 nM.

Turning to `CC(=O)NCC(C)(C)CNC(=O)c1ccc(N2CCN(c3ccccc3C)CC2)c(NC(=O)c2coc(C3CC3)n2)c1` [Compound 355], the half-maximal effective concentration (EC50) lay within 100 to 1000 nM. As to `Cc1ccccc1N1CCN(c2ccc(C(=O)NCCCNC(=O)c3ccncc3)cc2NC(=O)c2coc(C3CC3)n2)CC1` [Compound 442], the concentration giving a half-maximal response (EC50) lay within 100 to 1000 nM. Take `Cc1ccccc1N1CCN(c2ccc(C(=O)Nc3cccc(N4CCCC4=O)c3)cc2NC(=O)c2ccco2)CC1` [Compound 482]: the EC50 was in the range of 1000 to 10000 nM. As for `Cc1ccccc1N1CCN(c2ccc(C(=O)NCc3cccc(CN4CCCC4)c3)cc2NC(=O)c2coc(C3CC3)n2)CC1` [Compound 538], the EC50 fell in the range of 100 to 1000 nM. As to `Cc1ccccc1N1CCN(c2ccc(C(=O)NCC3C[C@@H]4CC[C@H]3C4)cc2NC(=O)c2ccco2)CC1` (some centres unmarked) [Compound 380], the concentration giving a half-maximal response (EC50) lay in the range of 100 to 1000 nM.

With `Cc1ccccc1N1CCN(c2ccc(C(=O)NCCCN3CCCC3=O)cc2NC(=O)c2nc(C3CC3)cs2)CC1` [Compound 285], the half-maximal effective concentration (EC50) lay in the range of 100 to 1000 nM.

Take `Cc1ccccc1N1CCN(c2ccc(C(=O)NC[C@@H](O)CO)cc2NC(=O)c2coc(C3CC3)n2)CC1` [Compound 567]: the 50% effective concentration (EC50) lay in the range of 100 to 1000 nM. For the molecule `COc1cccc(N2CCN(c3ccc(C(=O)NCCCN4CCCC4=O)cc3NC(=O)c3coc(C4CC4)n3)CC2)n1` [Compound 507], the EC50 is 100 to 1000 nM. Turning to `Cc1ccccc1N1CCN(c2ccc(C(=O)NCCCN3C(=O)OCC3(C)C)cc2NC(=O)c2coc(C3CC3)n2)CC1` [Compound 358], the 50% effective concentration (EC50) was in the range of 100 to 1000 nM.

On to `Cc1ccccc1N1CCN(c2ccc(C(=O)Nc3cccc(N4CCCC4=O)c3)cc2NC(=O)c2coc(C3CC3)n2)CC1` [Compound 481], for which the half-maximal effective concentration (EC50) was in the range of 100 to 1000 nM. Same read-out and setting: then `Cc1ccccc1N1CCN(c2ccc(C(=O)N3CC4(COC4)C3)cc2NC(=O)c2ccco2)CC1` [Compound 592], with 1000 to 10000 nM; and `Cc1ccccc1N1CCN(c2ccc(C(=O)NCCCN3CCCC3=O)cc2NC(=O)c2coc(CN(C)C)n2)CC1` [Compound 422], with greater than 10000 nM; and `CCOc1cc(CCCNC(=O)c2ccc(N3CCN(c4ccccc4C)CC3)c(NC(=O)c3ccc(C)o3)c2)ccc1OC` [Compound 581], with 100 to 1000 nM.

(Values after patent publication US9938262B2, “Benzamides” (Merck Patent GmbH, priority 2011, dated 2018).)
